Source: the NIST ThermoML archive (doi:10.1016/j.jct.2016.03.030)

Experiment: molar heat capacity at constant pressure; xn = mol fraction of the nth substance listed
Conditions: 100 kPa, Liquid, Small sample (50 mg) DSC

CCCC[N+]1(C)CCOCC1.[Br-] [4-butyl-4-methylmorpholinium bromide] + O
molar heat capacity at constant pressure [J/K/mol]
Conditions	298.15 K	303.15 K	308.15 K	313.15 K	318.15 K	323.15 K	328.15 K	333.15 K	338.15 K	343.15 K
x1 = 0.0363	87.85	87.9	88.24	88.5	88.76	89.02	89.23	89.41	89.57	89.8
x1 = 0.0601	94.21	94.49	95.08	95.61	96.11	96.14	96.74	97.08	97.24	97.27
x1 = 0.1242	111.81	112.44	113.49	114.39	115.3	116.21	117.02	117.79	118.61	119.34
x1 = 0.2383	149.98	150.75	152.16	153.36	154.56	155.82	156.95	158.08	159.21	160.26
x1 = 0.2569	154.14	155.11	156.45	157.64	158.76	160.03	161.22	162.27	163.39	164.51
x1 = 0.3007	165.4	166.24	167.67	168.93	170.11	171.54	172.72	173.82	175	176.09
